Source: ChEMBL document CHEMBL3407429, “Multifunctional tacrine-trolox hybrids for the treatment of Alzheimer's disease with cholinergic, antioxidant, neuroprotective and hepatoprotective properties” (Eur J Med Chem, 2015)
Activity calls are given as the source filed them. No cut-off for these calls is given here.

Key:
Cholinesterase [1] = biological target: Cholinesterase (Equus caballus, UniProt P81908)
Description: Inhibition of equine serum BuChE using S-butyrylthiocholine iodide as substrate preincubated for 6 mins before substrate addition by Ellman's method

Acetylcholinesterase [2] = biological target: Acetylcholinesterase (Electrophorus electricus, UniProt O42275)
Sequence of Acetylcholinesterase (Electrophorus electricus, UniProt O42275) (O42275 whole entry): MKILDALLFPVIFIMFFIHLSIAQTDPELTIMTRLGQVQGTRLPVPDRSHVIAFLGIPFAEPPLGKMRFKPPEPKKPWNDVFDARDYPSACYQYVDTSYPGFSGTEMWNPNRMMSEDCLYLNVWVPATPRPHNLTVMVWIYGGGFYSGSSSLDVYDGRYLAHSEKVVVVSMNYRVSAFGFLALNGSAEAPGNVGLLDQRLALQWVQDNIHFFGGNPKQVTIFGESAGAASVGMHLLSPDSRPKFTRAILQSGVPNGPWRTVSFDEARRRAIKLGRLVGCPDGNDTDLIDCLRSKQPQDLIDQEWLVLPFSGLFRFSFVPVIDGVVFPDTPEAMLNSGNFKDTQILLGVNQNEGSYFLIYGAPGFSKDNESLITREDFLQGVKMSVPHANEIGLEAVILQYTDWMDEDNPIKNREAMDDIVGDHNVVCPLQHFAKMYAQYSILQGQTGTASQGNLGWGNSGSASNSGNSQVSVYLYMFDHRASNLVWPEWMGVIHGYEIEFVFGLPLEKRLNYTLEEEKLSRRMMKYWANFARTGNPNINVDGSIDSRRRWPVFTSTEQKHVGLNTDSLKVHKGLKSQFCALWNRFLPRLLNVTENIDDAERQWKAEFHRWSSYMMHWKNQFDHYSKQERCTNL
Description: Inhibition of electric eel AChE using acetylthiocholine iodide as substrate preincubated for 6 mins before substrate addition by Ellman's method

Cholinesterase [3] = biological target: Cholinesterase (Homo sapiens, UniProt P06276)
Sequence of Cholinesterase (Homo sapiens, UniProt P06276) (P06276 whole entry): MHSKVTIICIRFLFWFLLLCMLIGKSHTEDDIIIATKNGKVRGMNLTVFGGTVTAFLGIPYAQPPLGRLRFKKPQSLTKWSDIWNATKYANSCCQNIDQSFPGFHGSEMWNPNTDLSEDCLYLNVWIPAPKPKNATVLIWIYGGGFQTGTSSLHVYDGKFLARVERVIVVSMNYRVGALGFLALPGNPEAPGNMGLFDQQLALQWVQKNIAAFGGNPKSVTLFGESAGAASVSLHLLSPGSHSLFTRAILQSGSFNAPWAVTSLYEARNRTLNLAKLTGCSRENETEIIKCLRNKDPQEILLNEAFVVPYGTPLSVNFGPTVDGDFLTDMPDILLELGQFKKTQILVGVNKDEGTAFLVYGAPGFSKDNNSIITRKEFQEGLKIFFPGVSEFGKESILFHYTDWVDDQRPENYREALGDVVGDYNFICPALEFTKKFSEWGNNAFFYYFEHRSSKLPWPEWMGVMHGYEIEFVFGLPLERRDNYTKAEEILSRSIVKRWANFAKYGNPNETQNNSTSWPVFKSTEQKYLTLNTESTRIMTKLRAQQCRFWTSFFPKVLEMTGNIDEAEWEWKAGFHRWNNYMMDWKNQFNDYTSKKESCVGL
Description: Inhibition of human serum BuChE using S-butyrylthiocholine iodide as substrate preincubated for 6 mins before substrate addition by Ellman's method

Acetylcholinesterase [4] = biological target: Acetylcholinesterase (Homo sapiens, UniProt P22303)
Sequence of Acetylcholinesterase (Homo sapiens, UniProt P22303) (P22303 whole entry): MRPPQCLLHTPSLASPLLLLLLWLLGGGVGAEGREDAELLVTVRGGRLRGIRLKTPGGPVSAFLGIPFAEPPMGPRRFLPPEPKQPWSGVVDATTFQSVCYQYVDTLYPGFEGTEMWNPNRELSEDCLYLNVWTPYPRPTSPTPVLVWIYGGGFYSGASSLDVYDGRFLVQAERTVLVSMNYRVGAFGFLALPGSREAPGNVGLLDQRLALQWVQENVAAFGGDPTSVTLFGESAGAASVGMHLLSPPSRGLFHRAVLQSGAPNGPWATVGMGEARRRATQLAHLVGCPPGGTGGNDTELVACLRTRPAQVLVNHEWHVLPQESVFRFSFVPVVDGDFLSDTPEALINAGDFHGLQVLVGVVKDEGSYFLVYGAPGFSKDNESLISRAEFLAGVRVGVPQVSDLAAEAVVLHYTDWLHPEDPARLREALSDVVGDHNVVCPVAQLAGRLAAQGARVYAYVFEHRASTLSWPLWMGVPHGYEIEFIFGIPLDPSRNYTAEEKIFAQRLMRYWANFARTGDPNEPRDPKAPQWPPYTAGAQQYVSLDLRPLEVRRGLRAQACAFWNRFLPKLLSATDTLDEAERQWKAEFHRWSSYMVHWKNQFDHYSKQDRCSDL
Description: Inhibition of human erythrocyte AChE using acetylthiocholine iodide as substrate preincubated for 6 mins before substrate addition by Ellman's method

in vitro = details: PAMPA
Description: Permeability of the compound in PBS and EtOH by PAMPA method

PC-12 [5] = assay: Neuroprotective activity against H2O2-induced oxidative stress in rat PC12 cells assessed as cell viability preincubated at 12.5 to 6.25 uM for 2 hrs before H2O2 addition measured after 24 hrs by MTT assay; format: functional, cell-based
[6] = Cytotoxicity against rat PC12 cells assessed as reduction in cell viability at 1.563 to 12.5 uM after 48 hrs by MTT assay; format: cell-based; details: pc-12, 48 h
Rattus norvegicus [7] = assay: Hepatotoxicity in Sprague-Dawley rat assessed as increase in aspartate aminotransferase activity in serum at 6 umol/100g body weight, ip measured up to 72 hrs; format: toxicity, organism-based; details: in vivo
Rattus norvegicus [8] = assay: Hepatotoxicity in Sprague-Dawley rat at 6 umol/100g body weight, ip measured after 24 hrs by histomorphological study; format: toxicity, organism-based; details: in vivo
[9] = biological target: Acetylcholinesterase (Electrophorus electricus) (UniProt O42275); assay: Mixed-type inhibition of electric eel AChE using acetylthiocholine iodide as substrate by Lineweaver-Burk double reciprocal plot method
Sequence of Acetylcholinesterase (Electrophorus electricus) (O42275 24-633 limits assumed): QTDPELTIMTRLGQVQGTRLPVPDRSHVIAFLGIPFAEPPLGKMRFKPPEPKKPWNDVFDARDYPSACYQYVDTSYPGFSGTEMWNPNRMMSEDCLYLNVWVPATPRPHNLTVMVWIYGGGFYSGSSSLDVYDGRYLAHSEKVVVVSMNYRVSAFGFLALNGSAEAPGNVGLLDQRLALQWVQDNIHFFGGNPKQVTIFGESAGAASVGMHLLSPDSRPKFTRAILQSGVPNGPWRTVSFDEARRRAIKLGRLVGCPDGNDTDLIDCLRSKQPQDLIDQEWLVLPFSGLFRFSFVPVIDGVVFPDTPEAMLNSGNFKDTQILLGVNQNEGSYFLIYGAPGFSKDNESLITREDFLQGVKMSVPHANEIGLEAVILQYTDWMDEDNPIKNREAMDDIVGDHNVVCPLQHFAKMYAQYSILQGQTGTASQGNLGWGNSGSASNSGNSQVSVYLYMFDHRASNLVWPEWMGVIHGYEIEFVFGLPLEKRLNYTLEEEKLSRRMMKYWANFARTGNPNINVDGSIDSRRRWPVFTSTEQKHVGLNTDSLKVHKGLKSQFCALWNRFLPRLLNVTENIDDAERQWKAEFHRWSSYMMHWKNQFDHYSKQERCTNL

Rattus norvegicus [10] = assay: Hepatotoxicity in Sprague-Dawley rat assessed as increase in alanine aminotransferase activity in serum at 6 umol/100g body weight, ip measured up to 72 hrs; format: toxicity, organism-based; details: in vivo
PC-12 [11] = assay: Neuroprotective activity against H2O2-induced oxidative stress in rat PC12 cells assessed as inhibition of cell death preincubated at 3.125 to 6.25 uM for 2 hrs before H2O2 addition measured after 24 hrs by MTT assay; format: functional, cell-based

Sequence of Cholinesterase (Equus caballus, UniProt P81908) (P81908 whole entry): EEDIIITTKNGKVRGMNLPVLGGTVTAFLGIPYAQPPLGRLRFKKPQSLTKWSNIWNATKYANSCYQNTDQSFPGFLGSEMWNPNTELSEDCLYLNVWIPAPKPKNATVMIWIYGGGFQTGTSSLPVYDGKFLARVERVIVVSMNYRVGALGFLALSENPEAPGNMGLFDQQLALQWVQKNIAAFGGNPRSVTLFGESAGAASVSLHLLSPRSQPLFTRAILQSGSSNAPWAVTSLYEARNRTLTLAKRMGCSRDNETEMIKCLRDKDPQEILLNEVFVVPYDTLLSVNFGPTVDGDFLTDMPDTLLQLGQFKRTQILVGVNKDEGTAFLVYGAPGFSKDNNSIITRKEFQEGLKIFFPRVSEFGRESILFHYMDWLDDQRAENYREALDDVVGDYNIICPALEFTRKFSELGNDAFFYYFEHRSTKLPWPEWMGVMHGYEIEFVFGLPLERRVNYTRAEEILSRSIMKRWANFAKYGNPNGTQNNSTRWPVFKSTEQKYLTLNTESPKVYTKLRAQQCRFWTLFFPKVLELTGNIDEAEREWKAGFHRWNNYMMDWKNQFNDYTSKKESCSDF

For Cc1c(C)c2c(c(C)c1O)CCC(C)(C(=O)NCCCCCNc1c3c(nc4ccccc14)CCCC3)O2 (configuration not stated), which IC50 (Cholinesterase [1]) is on record?
Its IC50 is 35.4 nM.

What about the IC50 (Acetylcholinesterase [2]) of the same compound?
Its IC50 is 250 nM.

And the IC50 (Cholinesterase [3])?
Its IC50 is 10.2 nM.

What about the IC50 of the same compound?
Its IC50 is 40.7 nM.

What about the IC50 (Acetylcholinesterase [4]) of the same compound?
The IC50 was 215 nM.

For CCn1cc(C(=O)O)c(=O)c2cc(F)c(N3CCNC(C)C3)c(F)c21 (configuration not stated) [LOMEFLOXACIN], which Papp (in vitro) is on record?
Its Papp is 0.8 ×10⁻⁶ cm/s.

What does the source list for Cc1c(C)c2c(c(C)c1O)CCC(C)(C(=O)NCCCCCCNc1c3c(nc4ccccc14)CCCC3)O2 (configuration not stated)?
IC50 (Cholinesterase [1]): 22.2 nM; IC50 (Acetylcholinesterase [2]): 9.8 nM; inhibition (PC-12 [5]): inactive; IC50 (Cholinesterase [3]): 20.5 nM; Activity [6]: Non-toxic; Activity (Rattus norvegicus [7]): Non-toxic; Activity (Rattus norvegicus [8]): Non-toxic; inhibition [9]: Active; Activity (Rattus norvegicus [10]): Non-toxic; inhibition (PC-12 [11]): Active; Papp (in vitro): 8.87 ×10⁻⁶ cm/s; IC50: 48.7 nM; IC50 (Acetylcholinesterase [4]): 23.5 nM

With Cc1c(C)c2c(c(C)c1O)CCC(C)(C(=O)NCCNc1c3c(nc4ccccc14)CCCC3)O2 (configuration not stated) as the compound, how does the IC50 (Cholinesterase [1]) read?
Its IC50 is 41.3 nM.

And the IC50 (Acetylcholinesterase [2])?
Its IC50 is 150 nM.

And the IC50 (Cholinesterase [3])?
The IC50 was 56.3 nM.

And the IC50?
The IC50 was 30.4 nM.

What about the IC50 (Acetylcholinesterase [4]) of the same compound?
Its IC50 is 284 nM.

With C[C@]12CCC(=O)C=C1CC[C@@H]1[C@@H]2CC[C@@]2(C)[C@H]1CC[C@]2(O)C(=O)CO [CORTODOXONE] as the compound, how does the Papp (in vitro) read?
The Papp was 2.5 ×10⁻⁶ cm/s.

Which IC50 does the source give for Cc1c(C)c2c(c(C)c1O)CCC(C)(C(=O)O)O2 (configuration not stated) [TROLOX] here?
Its IC50 is 35.6 nM.

With Cc1c(C)c2c(c(C)c1O)CCC(C)(C(=O)NCCCCCCCCCCNc1c3c(nc4ccccc14)CCCC3)O2 (configuration not stated) as the compound, how does the IC50 (Cholinesterase [1]) read?
The IC50 was 263 nM.

And the IC50 (Acetylcholinesterase [2])?
The IC50 was 387 nM.

What about the IC50 (Cholinesterase [3]) of the same compound?
Its IC50 is 110 nM.

And the IC50?
Its IC50 is 43.2 nM.

And the IC50 (Acetylcholinesterase [4])?
Its IC50 is 453 nM.

Which results are given for Cc1c(C)c2c(c(C)c1O)CCC(C)(C(=O)NCCCCCCCCNc1c3c(nc4ccccc14)CCCC3)O2 (configuration not stated)?
IC50 (Cholinesterase [1]): 151 nM; IC50 (Acetylcholinesterase [2]): 228 nM; IC50 (Cholinesterase [3]): 34.7 nM; IC50: 47.3 nM; IC50 (Acetylcholinesterase [4]): 226 nM

Which IC50 (Cholinesterase [1]) does the source give for Cc1c(C)c2c(c(C)c1O)CCC(C)(C(=O)NCCCCCCCNc1c3c(nc4ccccc14)CCCC3)O2 (configuration not stated) here?
Its IC50 is 61.7 nM.

And the IC50 (Acetylcholinesterase [2])?
Its IC50 is 92.4 nM.

And the IC50 (Cholinesterase [3])?
Its IC50 is 19.2 nM.

What about the IC50 of the same compound?
Its IC50 is 46.9 nM.

What about the IC50 (Acetylcholinesterase [4]) of the same compound?
Its IC50 is 144 nM.

Which results are given for Cc1c(C)c2c(c(C)c1O)CCC(C)(C(=O)NCCCCNc1c3c(nc4ccccc14)CCCC3)O2 (configuration not stated)?
IC50 (Cholinesterase [1]): 15.6 nM; IC50 (Acetylcholinesterase [2]): 558 nM; IC50 (Cholinesterase [3]): 5.2 nM; IC50: 44.2 nM; IC50 (Acetylcholinesterase [4]): 535 nM

With CN1C(C(=O)Nc2ccccn2)=C(O)c2ccccc2S1(=O)=O [PIROXICAM] as the compound, how does the Papp (in vitro) read?
The Papp was 0.6 ×10⁻⁶ cm/s.
